Laboratory results published in PMC3578829, “A Small Molecule (Pluripotin) as a Tool for Studying Cancer Stem Cell Biology: Proof of Concept” (PLoS ONE, 2013).
“Also recorded” adds a separate entry of the source.

How the values were obtained:
[1] = test system: Raf; details: cited from earlier work
[2] = test system: COLO 205; test: Soft agar cloning assay; type: cell-based; details: 1.25 µM SL0101 for 24 hrs prior to cloning, evaluated 7 days later, all plating densities
Method: The soft agar colony formation assay has been previously described. In brief, for each treatment condition, triplicate 35 mm^2 dishes were coated with a 1 ml base layer containing 0.7% agarose (Seaplaque: FMC Corp., Rockland, ME). On day 0, cells were dissociated, washed once in growth medium, and subcultured by layering various cell concentrations in 0.5 ml culture medium containing 0.3% agarose onto the base coat. Culture dishes were transferred to a refrigerator (4°C) for 15 min, to room temperature for 10 min, and then to culture incubators. An upper layer of 0.5 ml culture medium was applied on day 0. Cultures were stained with MTT (1 mg/ml) for visualization and imaging at multiple time intervals (day 7 and 14). Cumulative counts of colonies (diameters, >60 µm) and cumulative volumes of CFU (diameters >120 µm) were determined with an Omnicon FAS-II (Bausch & Lomb, Rochester, NY) following calibration with an Omnicon test plate 3 and polystyrene microspheres embedded in soft agar matrix. The evaluable region of each culture dish (35 contiguous fields equivalent to 51% of the cell layer culture volume) was analyzed. Selective scoring of viable cell groups was achieved by adjustment of the instrument detection threshold to exclude images of nonstained cellular material and debris. The data was analyzed with Lotus Symphony software.

[3] = test system: PKC; details: cited from earlier work
[4] = test system: MEK; details: cited from earlier work

In the case of `CC(=O)O[C@@H]1[C@@H](OC(C)=O)[C@@H](O)[C@H](Oc2c(-c3ccc(O)cc3)oc3cc(O)cc(O)c3c2=O)O[C@H]1C` [SL0101], the “Activity against Raf” value [1] is listed as “no activity”, the “Colony formation (≥60 µm) in soft agar vs control” value [2] is listed as “increased colony formation; also recorded: Statistically significant increases in colony formation” and the “Activity against PKC” value [3] is listed as “no activity”. The “Activity against MEK” value [4] was “no activity”.
